One experiment deals with T1, human STING WT (R232) (Homo sapiens, UniProt Q86WV6, H232R).
T1 construct: purchased Cisbio 64BDSTGPEG
As to the kind of experiment: Human STING HTRF binding assay (competitive, Cisbio 64BDSTGPEG). The procedure:
Binders to human STING WT (R232) were identified using a competitive HTRF assay format (Cisbio 64BDSTGPEG), which uses d2-labeled STING ligand, a 6His (SEQ ID NO: 2) tagged human STING protein, and an anti 6His (SEQ ID NO: 2) Cryptate-labeled antibody. Compounds compete with the STING ligand-d2 and thereby prevents FRET from occurring, which can be measured by an EnVision™ reader (PerkinElmer).
Assay method: Compounds were delivered as 10 mM DMSO solution, serially diluted by an Agilent Bravo Workstation and transferred to the 384 well assay plate (Perkin Elmer #6005359) using a Cybiwell dispenser. Typically, 8 concentrations were used with the highest concentration at 10 μM or 1 μM in the final assay volume followed by ~1:5 dilution steps. DMSO concentration was set to 1% in the final assay volume. The 384 well assay plate contained 20 test compounds and DMSO in column 23 and 24. A cGAMP standard dilution row was prepared according to the manufacturer and transferred to each assay plate. After transfer of compound solution or dilution buffer for negative (high) and positive (low) controls, 5 μl of the human STING protein (cyclic binding domain (residues 138-379) of the WT R232 human version, fused to a 6 His tag (SEQ ID NO: 2) at the Nter part; 1:50 dilution in detection buffer) were dispensed to all wells except of the positive control, which received detection buffer only. Plates were the centrifuged for 20 sec at 1000 rpm. After that, 10 μl of Anti-6His-Cryptate antibody/Sting ligand-d2 mix was added to all wells using a Multidrop combi dispenser, followed by another sec/1000 rpm centrifugation step. After an incubation of the plates for 180 min at room temperature, […] at […] (HTRF ratio) was measured using an Envison Reader (PerkinElmer).
Data evaluation and calculation: For data evaluation and calculation, HTRF ratios were calibrated using the cGAMP standard curve. After that, the measurement of the low control was set as 0% control and the measurement of the high control was set as 100% control. The IC50 values were calculated using the standard 4 parameter logistic regression formula. Calculation: [y=(a−d)/(1+(x/c)^b)+d], a=low value, d=high value; x=conc M; c=IC50 M; b=slope;
(In general: TR-FRET usually uses a lanthanide donor and a delayed reading to cut background.)

The subject of experiment [1] is STING inhibition in human whole blood (IFNα2α production). As to the kind of experiment: Human whole blood assay (HWBA): cGAMP-stimulated IFNα2α production. Conditions: Homo sapiens. It is filed as cell-based. Summed up:
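Na-citrate human whole blood from ≥3 healthy donors, preincubated 60 min at room temperature with compound (8 concentrations, top 10 μM, ~1:5 steps, 0.1% DMSO), then stimulated with cGAMP and incubated 22 h at 37 °C. Plasma IFNα2α measured by MSD immunoassay; % control versus stimulated/unstimulated wells, IC50 by 4-parameter logistic fit.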

pIC50: −log10 of the molar value.

In general, pIC50 refers to −log10 of the IC50, conventionally taken in molar units. Higher therefore signals a low IC50.

T1 sequence (Q86WV6 138-379 H232R): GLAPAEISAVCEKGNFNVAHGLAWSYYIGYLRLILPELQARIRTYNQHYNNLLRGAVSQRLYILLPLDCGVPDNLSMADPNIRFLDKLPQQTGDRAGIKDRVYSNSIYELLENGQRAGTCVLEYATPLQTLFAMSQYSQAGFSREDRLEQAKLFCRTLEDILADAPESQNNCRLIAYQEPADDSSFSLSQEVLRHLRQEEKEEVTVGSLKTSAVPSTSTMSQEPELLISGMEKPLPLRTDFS

Regarding `CCn1cc2cc(-n3nc(-c4cccc5nn(C[C@H](O)c6ccccc6)cc45)c(C(C)C)c3C)c(C)nc2n1` [Example 100, (1R)-2-[4-(1-{2-ethyl-6-methyl-2H-pyrazolo[3,4-b]pyridin-5-yl}-5-methyl-4-(propan-2-yl)-1H-pyrazol-3-yl)-2H-indazol-2-yl]-1-phenylethan-1-ol], the pIC50 at human STING WT (R232) was 8.16; in experiment [1], 7.43.
For `Cc1c(C(C)C)c(-c2cccc3nn(C[C@H](O)c4ccccc4)cc23)nn1-c1cc2cn(C)nc2[n+]([O-])c1C1CC1` [Example 50, 6-cyclopropyl-5-(3-{2-[(2R)-2-hydroxy-2-phenylethyl]-2H-indazol-4-yl}-5-methyl-4-(propan-2-yl)-1H-pyrazol-1-yl)-2-methyl-2H-pyrazolo[3,4-b]pyridin-7-ium-7-olate], the pIC50 is 7.79 at human STING WT (R232) and 6.80 in experiment [1].
`CC(C)c1c(-c2cccc3nn(C[C@H](O)c4ccccc4)cc23)nc(-c2cc3cn(C)nc3nc2C(F)(F)F)n1C` [Example 57, (1R)-2-(4-{1-methyl-2-[2-methyl-6-(trifluoromethyl)-2H-pyrazolo[3,4-b]pyridin-5-yl]-5-(propan-2-yl)-1H-imidazol-4-yl}-2H-indazol-2-yl)-1-phenylethan-1-ol]: the values for the pIC50 (at human STING WT (R232); in experiment [1]) were 7.60 and 6.64, respectively.
The corresponding values for `CCc1nc2nn(C)cc2cc1-c1nc(-c2cccc3nn(C[C@H](F)c4ccccc4)cc23)c(C2CC2)n1C` [Example 107, 4-(5-cyclopropyl-2-{6-ethyl-2-methyl-2H-pyrazolo[3,4-b]pyridin-5-yl}-1-methyl-1H-imidazol-4-yl)-2-[(2R)-2-fluoro-2-phenylethyl]-2H-indazole] are 8.42 and 7.51.
Turning to `Cc1nc2nn(CC(O)CN3CCN(C)CC3)cc2cc1-n1nc(-c2cccc3nn(C[C@H](O)c4ccccc4)cc23)c(C(C)C)c1C` (stereo partly drawn) [Example 70, 1-[5-(3-{2-[(2R)-2-hydroxy-2-phenylethyl]-2H-indazol-4-yl}-5-methyl-4-(propan-2-yl)-1H-pyrazol-1-yl)-6-methyl-2H-pyrazolo[3,4-b]pyridin-2-yl]-3-(4-methylpiperazin-1-yl)propan-2-ol], the figures for the pIC50 (on human STING WT (R232); in experiment [1]) were 7.42 and 6.43, respectively.
For the compound `Cc1nc2nn(C)cc2cc1-n1nc(-c2cccc3nn(C[C@H](OCF)c4ccccc4)cc23)c(C(C)C)c1C` [Example 27, 4-(1-{2,6-dimethyl-2H-pyrazolo[3,4-b]pyridin-5-yl}-5-methyl-4-(propan-2-yl)-1H-pyrazol-3-yl)-2-[(2R)-2-(fluoromethoxy)-2-phenylethyl]-2H-indazole], the pIC50 was 7.84 at human STING WT (R232) and 6.96 in experiment [1].
The corresponding values for `Cc1nc2nn(CCCCN3CCN(C)CC3)cc2cc1-n1nc(-c2cccc3nn(C[C@H](O)c4ccccc4)cc23)c(C(C)C)c1C` [Example 45, (1R)-2-[4-(5-methyl-1-{6-methyl-2-[4-(4-methylpiperazin-1-yl)butyl]-2H-pyrazolo[3,4-b]pyridin-5-yl}-4-(propan-2-yl)-1H-pyrazol-3-yl)-2H-indazol-2-yl]-1-phenylethan-1-ol] are 7.74 and 6.85.
Regarding `Cc1nc2nn(CCCN3CCOCC3)cc2cc1-n1nc(-c2cccc3nn(C[C@H](F)c4ccccc4)cc23)c(C(C)C)c1C` [Example 49, 2-[(2R)-2-fluoro-2-phenylethyl]-4-(5-methyl-1-{6-methyl-2-[3-(morpholin-4-yl)propyl]-2H-pyrazolo[3,4-b]pyridin-5-yl}-4-(propan-2-yl)-1H-pyrazol-3-yl)-2H-indazole], the pIC50 is 7.65 on human STING WT (R232) and 6.80 in experiment [1].
Turning to `Cc1c(C2CC2)c(-c2cccc3nn(C[C@H](O)c4ccccc4)cc23)nn1-c1cc2cn(C)nc2nc1C1CC1` [Example 29, (1R)-2-[4-(4-cyclopropyl-1-{6-cyclopropyl-2-methyl-2H-pyrazolo[3,4-b]pyridin-5-yl}-5-methyl-1H-pyrazol-3-yl)-2H-indazol-2-yl]-1-phenylethan-1-ol], the negative-log IC50 (pIC50) on human STING WT (R232) is 8.55; in experiment [1], 6.96.
On the same counts, the results for `Cc1nc2nn(C)cc2cc1-n1nc(-c2cccc3nn(CCc4ccc(OCCN(C)C)cc4)cc23)c(C(C)C)c1C` [Example 65, [2-(4-{2-[4-(1-{2,6-dimethyl-2H-pyrazolo[3,4-b]pyridin-5-yl}-5-methyl-4-(propan-2-yl)-1H-pyrazol-3-yl)-2H-indazol-2-yl]ethyl}phenoxy)ethyl]dimethylamine] are 7.77 and 6.49.
Consider `Cc1nc2nn(Cc3ncnn3C)cc2cc1-n1nc(-c2cccc3nn(C[C@H](O)c4ccccc4)cc23)c(C(C)C)c1C` [Example 62, (1R)-2-[4-(5-methyl-1-{6-methyl-2-[(1-methyl-1H-1,2,4-triazol-5-yl)methyl]-2H-pyrazolo[3,4-b]pyridin-5-yl}-4-(propan-2-yl)-1H-pyrazol-3-yl)-2H-indazol-2-yl]-1-phenylethan-1-ol], for which the pIC50 was 7.72 on human STING WT (R232) and 6.52 in experiment [1].
With `Cc1nc2nn(CCN3CCOCC3)cc2cc1-n1nc(-c2cccc3nn(C[C@H](O)c4ccccc4)cc23)c(C(C)C)c1C` [Example 1, (1R)-2-[4-(5-methyl-1-{6-methyl-2-[2-(morpholin-4-yl)ethyl]-2H-pyrazolo[3,4-b]pyridin-5-yl}-4-(propan-2-yl)-1H-pyrazol-3-yl)-2H-indazol-2-yl]-1-phenylethan-1-ol], the results for the pIC50 (on human STING WT (R232); in experiment [1]) were 7.92 and 7.14, respectively.
Consider `CC(C)n1cc2cc(-c3nc(-c4cccc5nn(C[C@H](O)c6ccccc6)cc45)c(C4CC4)n3C)c(C3CC3)nc2n1` [Example 33, (1R)-2-(4-{5-cyclopropyl-2-[6-cyclopropyl-2-(propan-2-yl)-2H-pyrazolo[3,4-b]pyridin-5-yl]-1-methyl-1H-imidazol-4-yl}-2H-indazol-2-yl)-1-phenylethan-1-ol], for which the pIC50 is 8.21 at human STING WT (R232) and 6.96 in experiment [1].
On to `CO[C@@H](Cn1cc2c(-c3nn(-c4cc5cn(C)nc5nc4C)c(C)c3C(C)C)cccc2n1)c1ccccc1` [Example 52, 4-(1-{2,6-dimethyl-2H-pyrazolo[3,4-b]pyridin-5-yl}-5-methyl-4-(propan-2-yl)-1H-pyrazol-3-yl)-2-[(2R)-2-methoxy-2-phenylethyl]-2H-indazole], for which the pIC50 at human STING WT (R232) is 7.70; in experiment [1], 6.74.
In the case of `Cc1c(C(C)C)c(-c2cccc3nn(C[C@H](O)c4ccccc4)cc23)nn1-c1cc2cn(C)nc2nc1OC(C)C` [Example 23, (1R)-2-(4-{5-methyl-1-[2-methyl-6-(propan-2-yloxy)-2H-pyrazolo[3,4-b]pyridin-5-yl]-4-(propan-2-yl)-1H-pyrazol-3-yl}-2H-indazol-2-yl)-1-phenylethan-1-ol], the pIC50 is 7.73 on human STING WT (R232) and 7.05 in experiment [1].
On the same counts, the results for `CC(C)c1nc2nn(C)cc2cc1-c1nc(-c2cccc3nn(CS(=O)(=O)c4ccccc4)cc23)c(C2CC2)n1C` [Example 96, 2-[(Benzenesulfonyl)methyl]-4-{5-cyclopropyl-1-methyl-2-[2-methyl-6-(propan-2-yl)-2H-pyrazolo[3,4-b]pyridin-5-yl]-1H-imidazol-4-yl}-2H-indazole] are 7.47 and 5.54.
The corresponding values for `Cc1c(C(C)C)c(-c2cccc3nn(C[C@H](O)c4ccc(OCCN(C)C)cc4)cc23)nn1-c1cc2cn(C)nc2nc1C1CC1` [Example 101] are 7.97 and 7.41.
`Cc1c(C(C)C)c(-c2cccc3nn(C[C@H](O)c4ccccc4)cc23)nn1-c1cc2cn(C)nc2nc1C1CCOC1` (stereo partly drawn) [Example 47, (1R)-2-(4-{5-methyl-1-[2-methyl-6-(oxolan-3-yl)-2H-pyrazolo[3,4-b]pyridin-5-yl]-4-(propan-2-yl)-1H-pyrazol-3-yl}-2H-indazol-2-yl)-1-phenylethan-1-ol]: the pIC50 on human STING WT (R232) is 7.92; in experiment [1] it was 6.82.
On the same counts, the results for `Cc1c(C(C)C)c(-c2cccc3nn(C[C@H](O)c4ccc(OCCN5CCOCC5)cc4)cc23)nn1-c1cc2cn(C)nc2nc1C1CC1` [Example 15, (1R)-2-[4-(1-{6-cyclopropyl-2-methyl-2H-pyrazolo[3,4-b]pyridin-5-yl}-5-methyl-4-(propan-2-yl)-1H-pyrazol-3-yl)-2H-indazol-2-yl]-1-{4-[2-(morpholin-4-yl)ethoxy]phenyl}ethan-1-ol] are 7.72 and 7.11.

Source of the values: patent publication US20260265244A1, “HETEROCYCLIC COMPOUNDS AS STING ANTAGONISTS” (Boehringer Ingelheim International GmbH, priority 2022, published 2026).
